Laboratory results reported in US5002942A, “1,5-benzothiazepine derivatives, their preparation and their use in the treatment of cardiovascular disorders” (Sankyo Company, Limited, priority 1988, dated 1991).

Experiments:
calcium channel = biological target: T1, calcium channel (Cavia porcellus, UniProt O35505); assay: Calcium channel blocking action (calcium-induced contraction of excised taenia coli); details: 0.5 h, test compound 10^-8 g/ml, 30 minutes incubation, guinea pig taenia coli, hydrochlorides (Example 34: fumarate)
T1 construct: The taenia coli excised from a male guinea pig; from tissue; host or cells: guinea pig taenia coli (excised smooth muscle strip)
T1 sequence (O35505 whole entry): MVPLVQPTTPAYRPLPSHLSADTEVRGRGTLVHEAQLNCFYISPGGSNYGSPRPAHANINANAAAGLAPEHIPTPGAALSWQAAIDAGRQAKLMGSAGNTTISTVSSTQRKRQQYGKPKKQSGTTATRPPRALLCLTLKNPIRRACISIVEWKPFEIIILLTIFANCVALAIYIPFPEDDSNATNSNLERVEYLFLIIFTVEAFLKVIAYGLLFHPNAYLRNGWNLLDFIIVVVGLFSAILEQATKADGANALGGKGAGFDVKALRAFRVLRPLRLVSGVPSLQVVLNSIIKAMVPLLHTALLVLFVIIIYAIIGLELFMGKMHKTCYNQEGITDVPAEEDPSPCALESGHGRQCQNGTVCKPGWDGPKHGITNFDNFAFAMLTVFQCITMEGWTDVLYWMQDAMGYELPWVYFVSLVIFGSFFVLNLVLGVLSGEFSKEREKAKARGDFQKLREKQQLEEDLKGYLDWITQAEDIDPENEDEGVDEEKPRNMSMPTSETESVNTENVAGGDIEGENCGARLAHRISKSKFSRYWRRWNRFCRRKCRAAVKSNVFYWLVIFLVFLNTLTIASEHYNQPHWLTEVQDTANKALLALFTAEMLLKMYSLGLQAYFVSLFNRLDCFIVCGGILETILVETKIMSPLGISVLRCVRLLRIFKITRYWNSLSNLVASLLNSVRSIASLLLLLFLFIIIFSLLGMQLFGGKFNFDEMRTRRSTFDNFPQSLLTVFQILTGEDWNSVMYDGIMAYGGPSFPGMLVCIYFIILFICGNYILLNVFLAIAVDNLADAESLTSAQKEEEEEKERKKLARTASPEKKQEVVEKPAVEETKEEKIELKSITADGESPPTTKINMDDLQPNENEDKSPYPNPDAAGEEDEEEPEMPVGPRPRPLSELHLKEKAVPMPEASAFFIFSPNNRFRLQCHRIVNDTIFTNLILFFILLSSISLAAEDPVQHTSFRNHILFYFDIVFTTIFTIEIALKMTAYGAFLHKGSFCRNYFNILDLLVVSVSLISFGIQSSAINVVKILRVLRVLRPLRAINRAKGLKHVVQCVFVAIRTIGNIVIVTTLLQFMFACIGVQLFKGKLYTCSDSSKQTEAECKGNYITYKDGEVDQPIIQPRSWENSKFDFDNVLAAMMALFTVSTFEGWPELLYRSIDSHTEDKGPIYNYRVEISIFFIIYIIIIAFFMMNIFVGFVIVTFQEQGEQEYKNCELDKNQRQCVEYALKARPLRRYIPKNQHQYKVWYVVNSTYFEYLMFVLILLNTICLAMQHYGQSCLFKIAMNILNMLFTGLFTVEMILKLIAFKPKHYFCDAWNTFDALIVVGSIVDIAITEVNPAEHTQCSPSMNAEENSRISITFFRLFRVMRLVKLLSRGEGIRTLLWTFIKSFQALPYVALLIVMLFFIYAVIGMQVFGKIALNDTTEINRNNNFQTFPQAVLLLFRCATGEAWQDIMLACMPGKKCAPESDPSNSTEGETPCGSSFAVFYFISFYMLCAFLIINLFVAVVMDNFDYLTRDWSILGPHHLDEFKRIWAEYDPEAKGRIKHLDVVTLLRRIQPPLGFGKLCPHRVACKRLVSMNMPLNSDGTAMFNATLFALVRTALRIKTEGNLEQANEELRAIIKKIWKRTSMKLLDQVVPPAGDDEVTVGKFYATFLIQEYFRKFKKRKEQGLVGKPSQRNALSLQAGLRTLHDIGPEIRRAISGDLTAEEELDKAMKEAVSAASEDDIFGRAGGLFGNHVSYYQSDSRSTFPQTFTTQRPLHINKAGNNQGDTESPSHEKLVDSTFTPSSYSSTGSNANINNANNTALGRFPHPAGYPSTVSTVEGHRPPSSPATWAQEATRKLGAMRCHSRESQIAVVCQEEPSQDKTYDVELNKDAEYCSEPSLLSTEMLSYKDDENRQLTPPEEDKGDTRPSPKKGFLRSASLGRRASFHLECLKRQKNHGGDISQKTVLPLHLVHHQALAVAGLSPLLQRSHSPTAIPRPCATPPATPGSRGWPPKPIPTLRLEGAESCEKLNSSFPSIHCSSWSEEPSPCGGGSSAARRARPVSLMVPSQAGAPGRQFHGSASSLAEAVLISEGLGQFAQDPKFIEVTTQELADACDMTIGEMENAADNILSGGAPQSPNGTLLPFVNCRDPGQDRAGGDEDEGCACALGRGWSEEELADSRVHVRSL
Procedure: The taenia coli excised from a male guinea pig weighing from 250 to 300 g was cut into a length of 6 to 7 mm and suspended in an organ bath filled with Tylord's solution (sodium chloride 97 mM, potassium chloride 40 mM, sodium hydrogen carbonate 11.9 mM, disodium hydrogen phosphate 0.4 mM, glucose 5.5 mM; pH 7.1). The bath solution contained no calcium ions and was aerated with a mixture of 95% oxygen and 5% carbon dioxide by volume. To this solution were added 10 and 30 mM solutions of calcium chloride at 30 minute intervals to obtain a final concentration of 0.4 mM. The tension which developed 1n the taenia coli was measured by an isometric transducer. The organ bath was then washed twice or more with Tylord's solution containing no calcium ions after which it was allowed to equilibrate for 30 minutes. After the muscle had stabilised, test compound dissolved in physiological saline was added to the bath to a final concentration of 10^-8 g/ml, and the bath was incubated for 30 minutes. 30 and 100 mM solutions of calcium chloride were again added to the bath, and the developed tension was measured. From the magnitude of the calcium-induced contraction before and after the test drug had been added the inhibitory rate was calculated using the following formula: [formula] where: Co=contraction induced by calcium ion before a test drug was added: and
Ct=contraction induced by calcium ion after the test drug had been added.
In addition to the compounds of the invention, we also carried out the same test with the following compounds of the prior art: (±)-diltiazem, […], (±)-8-chlorodiltiazem (8-Cl-diltiazem). (±)-8-methoxydiltiazem (8-MeO-diltiazem) and (±)-8-benzyloxydiltiazem (8-BzO-diltiazem).
In the Table, the compounds of the invention are identified by the number of the one of the foregoing Examples in which the compound was prepared. The prior art compounds are identified by the abbreviated generic names shown above in parentheses.
All of the compounds except for that of Example 34 were employed as the hydrochlorides; that of Example 34 was employed as the fumarate.

[1] = tested on: SHR (spontaneously hypertensive rats); assay: Antihypertensive action in SHR; format: in vivo; details: conscious male SHR, hydrochlorides, 24 hours
Procedure: Male SHR (spontaneously hypertensive rats), 23 to 30 weeks old, were anesthesized with sodium pentobarbital 50 mg/kg intraperitoneal administration), and a polyethylene cannula was inserted through the left femoral artery into the abdominal aorta. The other end of the cannula was led out of the body and fixed at the back of the neck. One week after the operation, when the animal had recovered from the stress of the surgery, the other end of the cannula was connected to a blood pressure measuring device, which was constructed according to the directions of Laffan et al. [Laffan, P.J., Peterson A., Hitch S,W. and Jeunelot C., Cardiovascular Res. 6. 319-324 (1972)], but with slight modifications. The blood pressure and heart rate of the conscious and […] SHR were measured. After the blood pressure and the heart rate had stabilised for more than one hour, the test drug was administered by […]. After administration of the test sample, the blood pressure and the heart rate were measured every 15 minutes over a period of 24 hours. The maximum decrease in blood pressure and the half-time of the blood pressure lowering activity thus determined are shown in Table 6.
All of the test compounds were employed as the hydrochlorides.

[2] = Rattus norvegicus, po, Dose 30 mg/kg, read-out: Maximum hypotension (%)
[3] = Rattus norvegicus, po, Dose 10 mg/kg, read-out: Maximum hypotension (%)

| Structure (SMILES) | inhibition at 0.01 µg/mL (calcium channel) [%] | Half-time of hypotension action ([1]; Dose 10 mg/kg) [h] | change in vivo at 10 mg/kg [1, 3] [%] | other results |
| --- | --- | --- | --- | --- |
| COc1ccc([C@@H]2Sc3cc(OC)ccc3N(CCN(C)C)C(=O)[C@@H]2OC(C)=O)cc1 (relative stereo) [(±)-8-MeO-diltiazem, cis-3-acetoxy-8-methoxy-2,3-dihydro-5-(2-dimethylaminoethyl)-2-(4-methoxyphenyl)-1,5-benzotbiazepin-4(5E,uns/H/ )-one, reference compound] | 67 |  |  | Half-time of hypotension action ([1]; Dose 30 mg/kg): 5.8 h; change in vivo at 30 mg/kg [1, 2]: -35% |
| COc1ccc([C@@H]2Sc3ccccc3N(CCN(C)C)C(=O)[C@@H]2OC(C)=O)cc1 (relative stereo) [(±)-diltiazem, reference compound] | 11 |  |  | Half-time of hypotension action ([1]; Dose 30 mg/kg): 3.8 h; change in vivo at 30 mg/kg [1, 2]: -17% |
| COc1ccc([C@@H]2Sc3ccccc3N(CCN(C)C)C(=O)[C@@H]2OC(C)=O)cc1 [(+)-diltiazem, (2, 3S)-cis-3-acetoxy-2,3-dihydro-5-(2-dimethylaminoethyl)-2-(4-methoxyphenyl)-1,5-benzothiazepin-4(5H)-one, reference compound] | 20 | 3.3 | -15 |  |
| COc1ccc([C@@H]2Sc3cc(Oc4ccccc4)ccc3N(CCN(C)C)C(=O)[C@@H]2OC(C)=O)cc1 [Example 12, (2S, 3S)-3-Acetoxy-5-(2-dimethylaminoethyl)-2,3-dihydro-2-(4-methoxyphenyl1}-8-phenoxy-1,5-benzothiazepin-4(5H)-one] | 86 |  |  | Half-time of hypotension action ([1]; Dose 5 mg/kg): 11.8 h; change in vivo at 5 mg/kg ([1]; Rattus norvegicus, po, Dose 5 mg/kg, read-out: Maximum hypotension (%)): -38% |
| COc1ccc([C@@H]2Sc3cc(Oc4ccc(F)cc4)ccc3N(CCN(C)C)C(=O)[C@@H]2OC(C)=O)cc1 [Example 14, (2S, 3S)-3-Acetoxy-5-(2-dimethylaminoethyl)-8-(4-fluoro-phenoxy)-2,3-dihydro-2-(4-methoxyphenyl)-1,5-benzothiazpin-4(5H)-one] | 94 | 12.7 | -37 |  |
| COc1ccc([C@@H]2Sc3cc(Oc4ccccc4)ccc3N(CCN(C)C)C(=O)[C@@H]2OC(C)=O)cc1F [Example 16, (2S, 3S)-3-Acetoxy-5-(2-dimethylaminoethyl)-2-(3-fluoro-4-methoxyphenvl)-2,3-dihydro-8-phenoxy-1,5-benzothiazepin-4(5H)-one] | 80 |  |  | Half-time of hypotension action ([1]; Dose 3 mg/kg): 9.4 h; change in vivo at 3 mg/kg ([1]; Rattus norvegicus, po, Dose 3 mg/kg, read-out: Maximum hypotension (%)): -21% |
| COc1ccc([C@@H]2Sc3cc(Cc4ccccc4)ccc3N(CCN(C)C)C(=O)[C@@H]2OC(C)=O)cc1 [Example 18] | 77 | 13.8 | -32 |  |
| COc1ccc([C@@H]2Sc3cc(Cc4cccs4)ccc3N(CCN(C)C)C(=O)[C@@H]2OC(C)=O)cc1 [Example 20, (2S, 3S)-3-Acetoxy-5-(2-dimethylaminoethyl)-2,3-dihydro-2-(4-Methoxyphenyl)-8-(2-thienylmethyl)-1,5-benzothiazepin-4(5H)-one] | 57 | 8.5 | -24 |  |
| COc1ccc([C@@H]2Sc3cc(Oc4ccc(F)cc4)ccc3N(CCN(C)C)C(=O)[C@@H]2OC(C)=O)cc1F [Example 32, (2S, 3S)-3-Acetoxy-5-(2-dimethylaminoethyl)-2-(3-fluoro-4-methoxyphenyl)-8-(4-fluorophenoxy)-2,3-dihydro-1,5-benzothiazepin-4(5H)-one] | 100 | 13.8 | -41 |  |
| CCN(CC)CCN1C(=O)[C@H](OC(C)=O)[C@H](c2ccc(OC)cc2)Sc2cc(Oc3ccccc3)ccc21 [Example 36, (2S, 3S)-3-Acetoxy-5-(2-diethylaminoethyl)-2,3-dihydro-2-(4-methoxyphenyl)-8-phenoxy-1,5-benzothiazepin-4(5H)-one] | 80 | 8.2 | -29 |  |
| COc1ccc([C@@H]2Sc3cc(Cc4ccc(F)cc4)ccc3N(CCN(C)C)C(=O)[C@@H]2OC(C)=O)cc1 [Example 38, (2S, 3S)-3-Acetoxy-5-(2-dimethylaminoethyl)-8-(4-fluoro-benzyl)-2,3-dihydro-2-(4-methoxyphenyl)-1,5-benzothiazepin-4(5H)-one] | 69 | 11.8 | -32 |  |
